Columns and labels:
[1] = Standardized oral fat load with and without vitamin A in healthy volunteers; assay type: in vivo, human
Experimental: Experimental procedure: Fasting venous blood was drawn and Sudan Black staining as described in example 2 was carried out (left panel of FIG. 7). In the right panel of FIG. 7, venous blood of the same healthy volunteer was drawn 4 hours after administration of a standardized oral fat load. In the oral RP-fat loading test, cream is used as fat source; this is a 40% (w/v) fat emulsion with a P/S ratio of 0.06, which contains 0.001% (w/v) cholesterol and 2.8% (w/v) carbohydrates. After an overnight fast of 12 h, the subjects ingest the fresh cream, to which 120.000 U of aqueous RP (Retinyl palmitate =vitamin A) had been added 18 h before the test, in a dose of 50 g per m^2 body surface. After the ingestion of the fat load, subjects were only allowed to drink water or tea during the following 24 h. Peripheral blood samples were obtained in sodium EDTA (2 mg/ml) before (T=0), at hourly intervals up to 10 h and at 12 and 24 h after the meal. Tubes were protected against light by aluminum foil and centrifuged immediately for 15 min at 800×g at 4° C. […]
Experimental procedure: Standardized oral fat loading tests (oral RP fat loading test) were performed in volunteers and patients and plasma C3 levels were determined nephelometrically at regular intervals. Complement component 3 was measured by nephelometry (Dade Behring Nephelometry type II). […]

[2] = system: Complement Lipid Pathway (CliP); test: MBL in-vitro assay: MBL-dependent complement activation in human serum, hemolysis of heterologous chicken erythrocytes; assay type: biochemical; settings: results summarized in FIG. 9
Experimental: Experimental procedure: Chylomicrons were isolated from human serum by ultra centrifugation and purified by column chromatography. The purified chylomicron fractions were added to MBL-positive serum (from healthy human subjects) and MBL-negative serum (from MBL-deficient human subjects) and purified heterologous chicken erythrocytes were added. Complement activation was allowed to occur at 37° C. for 45 min. after which, the extend of hemolysis was evaluated by spectrophotometrical determination of hemoglobin levels in serum supernatants.
Using the MBL in-vitro assay, we identified, as an example, the components from olive oil and soy oil inducing Complement Lipid Pathway (CliP)-activation.

CCCCCCCCCCCCCCCC(=O)OC/C=C(C)/C=C/C=C(C)/C=C/C1=C(C)CCCC1(C)C [vitamin A, Retinyl palmitate]
postprandial plasma C3 increase ([1]; 20 healthy volunteers, oral fat load with vs without vitamin A, after 2 h (FIG. 11A)): significantly higher | plasma triglyceride increase 2 h after acute oral fat load ([1]; healthy volunteers, fat load with vs without vitamin A (FIG. 11B)): reduction | CLiP-induction [2]: strong CLiP-induction

Reference: patent US20030165458A1, “Diagnosis, prevention, amelioration and/or treatment of disturbed immune function induced by disturbed lipid metabolism” (priority 2000, published 2003)
